# Legend:
# [1] = biological target: T1, hCX3CR1 (Homo sapiens, UniProt P49238); test: Ga16 assay, CX3CR1 agonism, Ca2+ sensitive photo-protein readout (FLIPRTETRA); type: cell-based; set-up: expressed in transfected cells; stably expresses a Ca2+ sensitive photo-protein; conditions: human CX3CR1 cell line
# T1 sequence (P49238 1-355): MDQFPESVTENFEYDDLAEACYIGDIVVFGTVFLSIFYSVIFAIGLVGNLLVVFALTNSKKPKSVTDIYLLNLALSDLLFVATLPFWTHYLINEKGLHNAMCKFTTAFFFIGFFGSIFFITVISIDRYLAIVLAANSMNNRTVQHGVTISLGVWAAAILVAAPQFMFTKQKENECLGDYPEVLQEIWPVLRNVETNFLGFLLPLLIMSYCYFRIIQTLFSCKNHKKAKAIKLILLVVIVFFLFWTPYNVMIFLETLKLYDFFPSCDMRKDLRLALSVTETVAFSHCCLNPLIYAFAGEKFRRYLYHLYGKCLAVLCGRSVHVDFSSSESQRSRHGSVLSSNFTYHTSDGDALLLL
# How it was run: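 Cells expressing human, mouse or rat CX3CR1 with a stably expressed Ca2+-sensitive photoprotein were loaded with 10 μM coelenterazine in tyrode buffer pH 7.4 for 3 h at room temperature. Agonist-mode luminescence kinetics were recorded for 90 s after compound injection on FLIPRTETRA. Dose-response runs were done in quadruplicate, with fractalkine as the reference agonist.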
# [2] = biological target: T1, hCX3CR1; test: ChAMPion assay (CHO ChAMPion/CX3CR1 K1.6, cAMP/CNG channel, photoprotein luminescence); type: cell-based; set-up: expressed in transfected cells; stably expresses a Ca2+ sensitive photo-protein; conditions: ChAMPion assay, CHO ChAMPion/CX3CR1 K1.6, Forskolin 3 μM; read-out: hCX3CR1 agonism EC50
EC50 [1],EC50 [2],Structure (SMILES)
10.5 µM,1.4 µM,"CN(C)CC1(CNC(=O)c2cc3c(s2)CCCCCC3)CCC1 [Example 23, N-[[1-[(dimethylamino)methyl]cyclobutyl]methyl]-4,5,6,7,8,9-hexahydrocycloocta[b]thiophene-2-carboxamide]"
8.2 µM,0.79 µM,"O=C(NCC1(CN2CCC(O)CC2)CCCC1)c1cc2c(s1)CCCCCC2 [Example 28, N-[[1-[(4-hydroxypiperidin-1-yl)methyl]cyclopentyl]methyl]-4,5,6,7,8,9-hexahydrocycloocta[b]thiophene-2-carboxamide]"
12.3 µM,2.2 µM,"CC(C)(CNC(=O)c1cc2c(s1)CCCCCC2)CN1CCCCC1 [Example 13, N-(2,2-dimethyl-3-piperidin-1-ylpropyl)-4,5,6,7,8,9-hexahydrocycloocta[b]thiophene-2-carboxamide]"
8.4 µM,1.8 µM,"O=C(NCC1(CN2CCCC2)CCCC1)c1cc2c(s1)CCCCCC2 [Example 5, N-[[1-(pyrrolidin-1-ylmethyl)cyclopentyl]methyl]-4,5,6,7,8,9-hexahydrocycloocta[b]thiophene-2-carboxamide]"
17 µM,3.1 µM,"CN(C)CC(C)(C)CNC(=O)c1cc2c(s1)CCCCCC2 [Example 70, N-[3-(dimethylamino)-2,2-dimethylpropyl]-4,5,6,7,8,9-hexahydrocycloocta[b]thiophene-2-carboxamide]"
10.2 µM,0.6 µM,"CN(CCO)CC1(CNC(=O)c2cc3c(s2)CCCCCC3)CCC1 [Example 30, N-[[1-[[2-hydroxyethyl(methyl)amino]methyl]cyclobutyl]methyl]-4,5,6,7,8,9-hexahydrocycloocta[b]thiophene-2-carboxamide]"
11.5 µM,2.1 µM,"CC(C)(CNC(=O)c1cc2c(s1)CCCCCC2)CN1CCCC1 [Example 1, N-(2,2-dimethyl-3-pyrrolidin-1-ylpropyl)-4,5,6,7,8,9-hexahydrocycloocta[b]thiophene-2-carboxamide]"
11.3 µM,13.1 µM,"O=C(NCC1(CN2CCCC(O)C2)CCCC1)c1cc2c(s1)CCCCCC2 (stereo not shown) [Example 27, N-[[1-[(3-hydroxypiperidin-1-yl)methyl]cyclopentyl]methyl]-4,5,6,7,8,9-hexahydrocycloocta[b]thiophene-2-carboxamide]"
9.4 µM,0.89 µM,"CN(C)CC1(CNC(=O)c2cc3c(s2)CCCCCC3)CC(O)C1 (stereo not shown) [Example 31, N-[[1-[(dimethylamino)methyl]-3-hydroxycyclobutyl]methyl]-4,5,6,7,8,9-hexahydrocycloocta[b]thiophene-2-carboxamide]"
9.3 µM,1.3 µM,"CN(C)CC1(CNC(=O)c2cc3c(s2)CCCCCC3)CCCC1 [Example 2, N-[[1-[(dimethylamino)methyl]cyclopentyl]methyl]-4,5,6,7,8,9-hexahydrocycloocta[b]thiophene-2-carboxamide]"
10.5 µM,0.7 µM,"O=C(NCC1(CN2CCC(O)C2)CCCC1)c1cc2c(s1)CCCCCC2 (racemic) [Example 25, N-[[1-[(3-hydroxypyrrolidin-1-yl)methyl]cyclopentyl]methyl]-4,5,6,7,8,9-hexahydrocycloocta[b]thiophene-2-carboxamide]"
6 µM,4.4 µM,"O=C(NCC1(CN2CCCC2)CCC1)c1cc2c(s1)CCCCCC2 [Example 21, N-[[1-(pyrrolidin-1-ylmethyl)cyclobutyl]methyl]-4,5,6,7,8,9-hexahydrocycloocta[b]thiophene-2-carboxamide]"
9.1 µM,0.64 µM,"O=C(NCC1(CN2CCCC2)CC(O)C1)c1cc2c(s1)CCCCCC2 (stereo not shown) [Example 32, N-[[3-hydroxy-1-(pyrrolidin-1-ylmethyl)cyclobutyl]methyl]-4,5,6,7,8,9-hexahydrocycloocta[b]thiophene-2-carboxamide]"
19.3 µM,2.7 µM,"O=C(NCC1(CN2CCCCC2)CCCC1)c1cc2c(s1)CCCCCC2 [Example 15, N-[[1-(piperidin-1-ylmethyl)cyclopentyl]methyl]-4,5,6,7,8,9-hexahydrocycloocta[b]thiophene-2-carboxamide]"
